Test results as given in patent US8778337B2, “Use of S-adenosylmethionine (SAM) and superoxide dismutase (SOD) for the preparation of medicaments for the treatment of alzheimer's disease” (Gnosis S.p.A., priority 2008, dated 2014).

Tests used:
PS1 [1] = assay: PS1 gene expression in brains of mice on a vitamin B-deprived diet (real-time PCR); format: in vivo; details: TgCRND8 mice and wild-type controls, SAM 400 μg/day, brain cDNA normalised to β-actin, FIG. 1, even lower than control diet
Method: (§1) In particular, the effect of SAM was tested at pharmacological concentrations (400 μg/day) on TgCRND8 mice and the corresponding wild-type controls.
(§2) RNA was extracted from cell cultures and homogenised brains, and cDNA was synthesised. 0.5 μg of total cDNA was used for each real-time reaction on an Opticon2 DNA Engine (MJ Research) using SYBR-Green reagents. The amplification efficiency for each pair of primers was previously determined by amplification of a standard linear curve. The experimental samples were compared with a standard curve of a specific gene to determine the quantity of specific cDNA present in the standard reaction. The standards were obtained from highly purified PCR products amplified by positive controls. The total cDNA levels were normalised to the β-actin control (gene housekeeping).

PS1 [2] = assay: Preliminary experiments: PS1 expression in SK-N-SH neuroblastoma line in vitamin B-deprived medium; format: cell-based; details: medium deprived of folate, vitamin B12 and vitamin B6, SAM at various concentrations, published
Method: (§3) Preliminary experiments have been performed on a neuroblastoma line (SK-N-SH) which expresses APP, PS1, PS2, BACE, alpha-secretase, the other components of gamma-secretase, and Notchl. The cultures were treated with a culture medium deprived of folate, vitamin B12 and vitamin B6 (in order to alter the metabolism of homocysteine), to which SAM was added at various concentrations (to balance the effects of vitamin deprivation). […] In experiments conducted with HpaII/PCR on APP and PS1 promoters, we found a major difference in the methylation of one of the CpG sites of the PS1 promoter. We concluded that the PS1 gene can be partly silenced by administration of exogenous SAM. The administration of SAM can reduce PS1 expression, restoring the metabolic balance in favour of alpha-secretase. Experiments have also been conducted with transgenic mice of the strain TgCRND8, and corresponding controls; these mice are characterised by the presence of the human mutated APP gene, and can therefore develop amyloid plaques in a short time. These animals were fed on a complete diet or a diet lacking in the vitamins of the B group; once again, as in the cells, an increase in PS1 and BACE expression was observed.

BACE [3] = assay: BACE gene expression in brains of mice on a vitamin B-deprived diet (real-time PCR); format: in vivo; details: TgCRND8 mice and wild-type controls, SAM 400 μg/day, brain cDNA normalised to β-actin, FIG. 1, even lower than control diet
Method: as §1, §2

SK-N-BE cell cultures = assay: SAM uptake in cell cultures (HPLC and tritiated SAM scintillation count); format: in vitro ADME, human; details: 100 μM SAM in F14 medium, 96 hours, HPLC; control 1
Method: For the cell cultures, 100 μM of SAM was added to the F14 cell culture medium (complete or deprived of vitamin B, according to trial design) and the cultures were stopped after 96 hours.
For the mice, 400 μg/day of SAM was administered orally by feeding probe needle, and the animals were sacrificed after 2 months; the animals were fed on a complete diet or a vitamin B-deprived diet, according to trial design. SAM levels were analysed by HPLC with a Varian HPLC system. The cells and homogenised brains were lysed in distilled water, and the macromolecules were precipitated with 1.5 M PCA. Standard SAM curves were calculated before and after the experimental samples. For the analysis of tritiated SAM, cells were treated as described above, while mice were treated for 4 days to minimise exposure to the radioactive drug. The cells and homogenised brains were lysed in distilled water. […] The uptake of radioactive SAM was measured by scintillation with a beta counter.
To establish whether the increase was due to uptake of exogenous SAM as opposed to an increase in the endogenous reserves in the presence of elevated extracellular concentrations of the molecule, a test was performed with radioactive SAM. 100 μM of tritiated SAM (SAM[3H]) was added to SK-N-BE cell cultures, and the uptake was evaluated by cell lysis and radioactivity count.

BACE [4] = assay: Preliminary experiments: BACE expression in SK-N-SH neuroblastoma line in vitamin B-deprived medium; format: cell-based; details: medium deprived of folate, vitamin B12 and vitamin B6, SAM at various concentrations, published
Method: as §3

[5] = SAM uptake in mouse brain after oral administration (HPLC and tritiated SAM scintillation count); format: in vivo; details: mice, 800 μg tritiated SAM; total and cleared lysates higher
Method: For the mice, 400 μg/day of SAM was administered orally by feeding probe needle, and the animals were sacrificed after 2 months; the animals were fed on a complete diet or a vitamin B-deprived diet, according to trial design. SAM levels were analysed by HPLC with a Varian HPLC system. The cells and homogenised brains were lysed in distilled water, and the macromolecules were precipitated with 1.5 M PCA. Standard SAM curves were calculated before and after the experimental samples. For the analysis of tritiated SAM, cells were treated as described above, while mice were treated for 4 days to minimise exposure to the radioactive drug. The cells and homogenised brains were lysed in distilled water. A portion of lysed brains was sonicated and centrifuged to separate membranes and cell organelles; another portion was treated with perchloric acid (PCA) after sonication to separate the macromolecules. The uptake of radioactive SAM was measured by scintillation with a beta counter.
A portion of the total brain lysates was also sonicated and centrifuged to obtain a cleared lysate (cytoplasm), and a further portion of this cleared lysate was precipitated with perchloric acid (PCA) to eliminate the proteins (soluble lysate).

BACE [6] = assay: BACE gene expression in vitamin-deprived SK-N-BE neuroblastoma cells (real-time PCR); format: cell-based, human; details: FIG. 2, SOD and GSH to a lesser extent than SAM
Method: as §2
(§4) As homocysteine metabolism is involved in both methylation and oxidoreduction reactions, we tested the effect of various antioxidants on the expression of the two genes.

PS1 [7] = assay: PS1 gene expression in vitamin-deprived SK-N-BE neuroblastoma cells (real-time PCR); format: cell-based, human; details: FIG. 2, SOD and GSH to a lesser extent than SAM
Method: as §2, §4

C[S+](CC[C@H](N)C(=O)O)C[C@H]1O[C@@H](n2cnc3c(N)ncnc32)[C@H](O)[C@@H]1O (some centres unmarked) [SAM, S-adenosylmethionine]
overexpression of PS1 induced by a deprived diet in vivo (PS1 [1]): reverses the overexpression
PS1 expression after the administration of SAM (PS1 [2]): marked reduction
overexpression of BACE induced by a deprived diet in vivo (BACE [3]): reverses the overexpression
intracellular levels of SAM (SK-N-BE cell cultures): 2.5 to 3 µM
BACE expression after the administration of SAM (BACE [4]): marked reduction
radioactivity level of soluble brain lysate (PCA-precipitated cleared lysate), as SAM [5]: ~0.5 ng

B1: SOD: enzyme superoxide dismutase, obtained by fermentation from strains of Saccharomyces cerevisiae (protein, UniProt P00445 2-154, looked up)
Superoxide dismutase [Cu-Zn]: VQAVAVLKGDAGVSGVVKFEQASESEPTTVSYEIAGNSPNAERGFHIHEFGDATNGCVSAGPHFNPFKKTHGAPTDEVRHVGDMGNVKTDENGVAKGSFKDSLIKLIGPTSVVGRSVVIHAGQDDLGKGDTEESLKTGNAGPRPACGVIGLTN
overexpression of BACE induced by vitamin deprivation (BACE [6]): inhibit overexpression
overexpression of PS1 induced by vitamin deprivation (PS1 [7]): inhibit overexpression
